From PubChem BioAssay AID2060500 (Molecular Pharmacology Branch, DTP, NCI, 2025)

Test system: 596521-263-R-J1-PDC complex spheroids, viability % of control
Assay: Anticancer human tumor 596521-263-R-J1-PDC patient-derived soft tissue sarcoma cell line growth inhibition [GQUAD]
Details: for IC50: curve of first compound; for viability, T/C: stronger effect = lower value; active = viability on the fitted dose curve at most 10% of control; inactive = the rest
In short: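 Multi-cell-type spheroids of tumor cells with HUVEC and mesenchymal stem cells, treated with drug combinations. Concentrations descend in half-log steps from near clinical Cmax, or from 10 microM where Cmax is unknown; viability read-out.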

[1] = second compound 0.0316 µM, first compound 0.000999 µM
[2] = second compound 0.0316 µM, first compound 0.00316 µM
[3] = second compound 0.0316 µM, first compound 0.00999 µM
[4] = second compound 0.0316 µM, first compound 0.0316 µM
[5] = second compound 0.0316 µM, first compound 0.0999 µM
[6] = second compound 0.0316 µM, first compound 0.316 µM
[7] = second compound 0.1 µM, first compound 0.000999 µM
[8] = second compound 0.1 µM, first compound 0.00316 µM
[9] = second compound 0.1 µM, first compound 0.00999 µM
[10] = second compound 0.1 µM, first compound 0.0316 µM
[11] = second compound 0.1 µM, first compound 0.0999 µM
[12] = second compound 0.1 µM, first compound 0.316 µM
[13] = second compound 0.316 µM, first compound 0.000999 µM
[14] = second compound 0.316 µM, first compound 0.00316 µM
[15] = second compound 0.316 µM, first compound 0.00999 µM
[16] = second compound 0.316 µM, first compound 0.0316 µM
[17] = second compound 0.316 µM, first compound 0.0999 µM
[18] = second compound 0.316 µM, first compound 0.316 µM
[19] = second compound 1 µM, first compound 0.000999 µM
[20] = second compound 1 µM, first compound 0.00316 µM
[21] = second compound 1 µM, first compound 0.00999 µM
[22] = second compound 1 µM, first compound 0.0316 µM
[23] = second compound 1 µM, first compound 0.0999 µM
[24] = second compound 1 µM, first compound 0.316 µM
[25] = second compound 3.16 µM, first compound 0.000999 µM
[26] = second compound 3.16 µM, first compound 0.00316 µM
[27] = second compound 3.16 µM, first compound 0.00999 µM
[28] = second compound 3.16 µM, first compound 0.0316 µM
[29] = second compound 3.16 µM, first compound 0.0999 µM
[30] = second compound 3.16 µM, first compound 0.316 µM
[31] = second compound 10 µM, first compound 0.000999 µM
[32] = second compound 10 µM, first compound 0.00316 µM
[33] = second compound 10 µM, first compound 0.00999 µM
[34] = second compound 10 µM, first compound 0.0316 µM
[35] = second compound 10 µM, first compound 0.0999 µM
[36] = second compound 10 µM, first compound 0.316 µM
[37] = second compound 0.0316 µM, first compound 0.1 µM
[38] = second compound 0.0316 µM, first compound 1 µM
[39] = second compound 0.0316 µM, first compound 3.16 µM
[40] = second compound 0.0316 µM, first compound 10 µM
[41] = second compound 0.1 µM, first compound 0.1 µM
[42] = second compound 0.1 µM, first compound 1 µM
[43] = second compound 0.1 µM, first compound 3.16 µM
[44] = second compound 0.1 µM, first compound 10 µM
[45] = second compound 0.316 µM, first compound 0.1 µM
[46] = second compound 0.316 µM, first compound 1 µM
[47] = second compound 0.316 µM, first compound 3.16 µM
[48] = second compound 0.316 µM, first compound 10 µM
[49] = second compound 1 µM, first compound 0.1 µM
[50] = second compound 1 µM, first compound 1 µM
[51] = second compound 1 µM, first compound 3.16 µM
[52] = second compound 1 µM, first compound 10 µM
[53] = second compound 3.16 µM, first compound 0.1 µM
[54] = second compound 3.16 µM, first compound 1 µM
[55] = second compound 3.16 µM, first compound 3.16 µM
[56] = second compound 3.16 µM, first compound 10 µM
[57] = second compound 10 µM, first compound 0.1 µM
[58] = second compound 10 µM, first compound 1 µM
[59] = second compound 10 µM, first compound 3.16 µM
[60] = second compound 10 µM, first compound 10 µM
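Note: spheroids exposed to drugs for 7 days before viability reading.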
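Throughout, for viability, T/C: 100% = DMSO vehicle control viability.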

CCc1c2c(nc3ccc(O)cc13)-c1cc3c(c(=O)n1C2)COC(=O)[C@]3(O)CC + CN(C)c1ccc(Nc2c3ccc(NC(=O)CCN4CCCC4)cc3nc3cc(NC(=O)CCN4CCCC4)ccc23)cc1
0.00351 µM: IC50 (second compound 0.316 µM)
active: viability, T/C [6] 7.38% | viability, T/C [12] 9.53% | viability, T/C [18] 8.17% | viability, T/C [24] 7.43% | viability, T/C [30] 9.32%
0.00564 µM: IC50 (second compound 3.16 µM)
0.00406 µM: IC50 (second compound 0.1 µM)
inactive: viability, T/C [1] 66.2% | viability, T/C [2] 54.6% | viability, T/C [3] 43.2% | viability, T/C [4] 28.7% | viability, T/C [5] 16.5% | viability, T/C [7] 60.4% | viability, T/C [8] 51.8% | viability, T/C [9] 41.3% | viability, T/C [10] 28.5% | viability, T/C [11] 15.6% | viability, T/C [13] 61.8% | viability, T/C [14] 50.7% | viability, T/C [15] 39.1% | viability, T/C [16] 28.9% | viability, T/C [17] 15.4% | viability, T/C [19] 61.1% | viability, T/C [20] 57% | viability, T/C [21] 47.5% | viability, T/C [22] 32.3% | viability, T/C [23] 16.7% | viability, T/C [25] 58.6% | viability, T/C [26] 54.7% | viability, T/C [27] 46.6% | viability, T/C [28] 31.1% | viability, T/C [29] 21.4% | viability, T/C [31] 52.9% | viability, T/C [32] 52.7% | viability, T/C [33] 44% | viability, T/C [34] 32.6% | viability, T/C [35] 20.9% | viability, T/C [36] 9.92%
0.00508 µM: IC50 (second compound 0.0316 µM)
0.00744 µM: IC50 (second compound 1 µM)
0.00375 µM: IC50 (second compound 10 µM)

CC1COCCN1c1cc(C2(O)CC3CCC(C2)O3)c2cnn(-c3ccn[nH]3)c2n1 (stereo not drawn) + Cc1cnc(CNC(=O)c2c(=O)c3ccc(N4CCCN(C)CC4)nc3n3c2sc2ccccc23)cn1
0.0637 µM: IC50 (second compound 1 µM)
0.158 µM: IC50 (second compound 0.316 µM)
active: viability, T/C [60] 4.21%
0.115 µM: IC50 (second compound 0.1 µM)
< 0.0316 µM: IC50 (second compound 3.16 µM) | IC50 (second compound 10 µM)
inactive: viability, T/C [4] 65.1% | viability, T/C [37] 60.9% | viability, T/C [6] 42.7% | viability, T/C [38] 34.6% | viability, T/C [39] 25.5% | viability, T/C [40] 13.8% | viability, T/C [10] 61% | viability, T/C [41] 49.9% | viability, T/C [12] 42.3% | viability, T/C [42] 33% | viability, T/C [43] 24.9% | viability, T/C [44] 15.2% | viability, T/C [16] 56.9% | viability, T/C [45] 54% | viability, T/C [18] 47.1% | viability, T/C [46] 29.7% | viability, T/C [47] 26.5% | viability, T/C [48] 13.6% | viability, T/C [22] 56.2% | viability, T/C [49] 44.2% | viability, T/C [24] 38.9% | viability, T/C [50] 31.4% | viability, T/C [51] 23.9% | viability, T/C [52] 13.8% | viability, T/C [28] 49.2% | viability, T/C [53] 40.2% | viability, T/C [30] 41.5% | viability, T/C [54] 24.8% | viability, T/C [55] 27.5% | viability, T/C [56] 14.4% | viability, T/C [34] 37.7% | viability, T/C [57] 32.6% | viability, T/C [36] 33.6% | viability, T/C [58] 27.9% | viability, T/C [59] 18.2%
0.211 µM: IC50 (second compound 0.0316 µM)

Cn1ncnc1[C@H]1c2n[nH]c(=O)c3cc(F)cc(c23)N[C@@H]1c1ccc(F)cc1 + Cc1cnc(CNC(=O)c2c(=O)c3ccc(N4CCCN(C)CC4)nc3n3c2sc2ccccc23)cn1
0.103 µM: IC50 (second compound 10 µM)
> 0.316 µM: IC50 (second compound 0.0316 µM) | IC50 (second compound 0.1 µM) | IC50 (second compound 0.316 µM) | IC50 (second compound 1 µM) | IC50 (second compound 3.16 µM)
inactive: viability, T/C [1] 108% | viability, T/C [2] 83.4% | viability, T/C [3] 94.5% | viability, T/C [4] 90.2% | viability, T/C [5] 90.2% | viability, T/C [6] 71.2% | viability, T/C [7] 88.5% | viability, T/C [8] 84% | viability, T/C [9] 72.3% | viability, T/C [10] 81.2% | viability, T/C [11] 74.6% | viability, T/C [12] 64.7% | viability, T/C [13] 81.3% | viability, T/C [14] 71.1% | viability, T/C [15] 86.4% | viability, T/C [16] 68.5% | viability, T/C [17] 76% | viability, T/C [18] 65.9% | viability, T/C [19] 74.1% | viability, T/C [20] 66.2% | viability, T/C [21] 60.5% | viability, T/C [22] 53.7% | viability, T/C [23] 60% | viability, T/C [24] 59.7% | viability, T/C [25] 55.9% | viability, T/C [26] 56.4% | viability, T/C [27] 54% | viability, T/C [28] 55.7% | viability, T/C [29] 56.5% | viability, T/C [30] 53% | viability, T/C [31] 52.9% | viability, T/C [32] 40.3% | viability, T/C [33] 56.2% | viability, T/C [34] 50.1% | viability, T/C [35] 52.8% | viability, T/C [36] 32.2%

Cc1cccc(N(C)C(=O)C2C(O)CCN2c2nc(C)cc(C(F)(F)F)c2C#N)c1 (stereo not drawn) + Cc1[nH]c2ccc(F)cc2c1-c1nc2c3cccnc3c3ncccc3c2[nH]1
> 10 µM: IC50 (second compound 0.0316 µM) | IC50 (second compound 0.1 µM) | IC50 (second compound 0.316 µM) | IC50 (second compound 1 µM) | IC50 (second compound 3.16 µM) | IC50 (second compound 10 µM)
inactive: viability, T/C [4] 106% | viability, T/C [37] 93.3% | viability, T/C [6] 92.7% | viability, T/C [38] 101% | viability, T/C [39] 98.1% | viability, T/C [40] 91.6% | viability, T/C [10] 98.7% | viability, T/C [41] 99.1% | viability, T/C [12] 112% | viability, T/C [42] 85.9% | viability, T/C [43] 104% | viability, T/C [44] 95.1% | viability, T/C [16] 102% | viability, T/C [45] 100% | viability, T/C [18] 91.4% | viability, T/C [46] 88.4% | viability, T/C [47] 110% | viability, T/C [48] 93.7% | viability, T/C [22] 91.4% | viability, T/C [49] 89.4% | viability, T/C [24] 93.9% | viability, T/C [50] 99.4% | viability, T/C [51] 109% | viability, T/C [52] 91.1% | viability, T/C [28] 85.8% | viability, T/C [53] 92.5% | viability, T/C [30] 83.1% | viability, T/C [54] 88% | viability, T/C [55] 93.4% | viability, T/C [56] 83.1% | viability, T/C [34] 70.4% | viability, T/C [57] 73.5% | viability, T/C [36] 83.8% | viability, T/C [58] 75% | viability, T/C [59] 83.7% | viability, T/C [60] 91.4%
